Source: the supplement of paper PMC10307832

How the values were obtained:
Experiment in all cases: relative viability (nuclei count vs DMSO), 5 days (fraction); higher = more cells survive
[1] = test system: A-427
In short: (§1)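 Values are medians from duplicate plates. Each reflects relative viability, defined as the nuclei count of treated wells over that of vehicle wells. Lung cancer cell lines in 1536-well plates were pin-tool dosed one day after seeding with one drug alone or with a fixed anchor-drug dose plus five library-drug doses (not always all listed) in √10 steps, then fixed, stained and imaged at 4× after 5 days.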

[2] = test system: CAL-12T
In short: as §1

[3] = test system: COR-L 105
In short: as §1

[4] = test system: EMC-BAC-2
In short: as §1

[5] = test system: HARA
In short: as §1

[6] = test system: HCC-366
In short: as §1

[7] = test system: HCC-827
In short: as §1

[8] = test system: HOP-62
In short: as §1

[9] = test system: LCLC-103H
In short: as §1

[10] = test system: NCI-H1355
In short: as §1

[11] = test system: NCI-H1395
In short: as §1

[12] = test system: NCI-H1437
In short: as §1

[13] = test system: NCI-H1755
In short: as §1

[14] = test system: NCI-H1792
In short: as §1

[15] = test system: NCI-H1915
In short: as §1

[16] = test system: NCI-H1975
In short: as §1

[17] = test system: NCI-H2009
In short: as §1

[18] = test system: NCI-H2228
In short: as §1

[19] = test system: NCI-H23
In short: as §1

[20] = test system: NCI-H460
In short: as §1

[21] = test system: NCI-H522
In short: as §1

[22] = test system: NCI-H727
In short: as §1

[23] = test system: SK-LU-1
In short: as §1

[24] = test system: SW 1573
In short: as §1

`C[C@@H]1CN(CC(=O)Nc2ccc3c(c2)Cc2cccc(-c4cc(=O)cc(N5CCOCC5)o4)c2S3)C[C@H](C)O1` + N=C(N)NC(=N)NCCc1ccccc1 [Phenformin] (partner 250 µM) gave a relative viability ([1]; first compound 0.04 µM) of 0.298, a relative viability ([1]; first compound 0.1265 µM) of 0.35 and a relative viability ([1]; first compound 0.4 µM) of 0.284. The relative viability ([1]; first compound 4 µM) was 0.285, the relative viability ([2]; first compound 0.04 µM) was 0.712 and the relative viability ([2]; first compound 0.1265 µM) was 0.505. For the same compound, the relative viability ([2]; first compound 0.4 µM) was 0.598, the relative viability ([2]; first compound 4 µM) was 0.425 and the relative viability ([3]; first compound 0.04 µM) was 0.503. It also gave a relative viability ([3]; first compound 0.1265 µM) of 0.444, a relative viability ([3]; first compound 0.4 µM) of 0.552 and a relative viability ([3]; first compound 4 µM) of 0.468. The relative viability ([4]; first compound 0.04 µM) was 0.56, the relative viability ([4]; first compound 0.1265 µM) was 0.566 and the relative viability ([4]; first compound 0.4 µM) was 0.495. The relative viability ([4]; first compound 4 µM) was 0.513, the relative viability ([5]; first compound 0.1265 µM) was 0.357 and the relative viability ([5]; first compound 0.4 µM) was 0.436. The relative viability ([5]; first compound 4 µM) was 0.467, the relative viability ([6]; first compound 0.04 µM) was 0.659 and the relative viability ([6]; first compound 0.1265 µM) was 0.656. It also gave a relative viability ([6]; first compound 0.4 µM) of 0.634, a relative viability ([6]; first compound 4 µM) of 0.681 and a relative viability ([7]; first compound 0.04 µM) of 0.429. It also gave a relative viability ([7]; first compound 0.1265 µM) of 0.402, a relative viability ([7]; first compound 0.4 µM) of 0.401 and a relative viability ([7]; first compound 4 µM) of 0.415. For the same compound, the relative viability ([8]; first compound 0.04 µM) was 0.613, the relative viability ([8]; first compound 0.1265 µM) was 0.689 and the relative viability ([8]; first compound 0.4 µM) was 0.715. For the same compound, the relative viability ([8]; first compound 4 µM) was 0.615, the relative viability ([9]; first compound 0.04 µM) was 0.325 and the relative viability ([9]; first compound 0.1265 µM) was 0.299. The relative viability ([9]; first compound 0.4 µM) was 0.302, the relative viability ([9]; first compound 4 µM) was 0.331 and the relative viability ([10]; first compound 0.04 µM) was 0.455. The relative viability ([10]; first compound 0.1265 µM) was 0.482, the relative viability ([10]; first compound 0.4 µM) was 0.433 and the relative viability ([10]; first compound 4 µM) was 0.43. It also gave a relative viability ([11]; first compound 0.04 µM) of 0.495, a relative viability ([11]; first compound 0.1265 µM) of 0.456 and a relative viability ([11]; first compound 0.4 µM) of 0.417. For the same compound, the relative viability ([11]; first compound 4 µM) was 0.405, the relative viability ([12]; first compound 0.04 µM) was 0.338 and the relative viability ([12]; first compound 0.1265 µM) was 0.306. The relative viability ([12]; first compound 0.4 µM) was 0.303, the relative viability ([12]; first compound 4 µM) was 0.365 and the relative viability ([13]; first compound 0.04 µM) was 0.611. It also gave a relative viability ([13]; first compound 0.1265 µM) of 0.603, a relative viability ([13]; first compound 0.4 µM) of 0.698 and a relative viability ([13]; first compound 4 µM) of 0.586. The relative viability ([14]; first compound 0.04 µM) was 0.35, the relative viability ([14]; first compound 0.4 µM) was 0.303 and the relative viability ([14]; first compound 4 µM) was 0.526. The relative viability ([15]; first compound 0.04 µM) was 0.379, the relative viability ([15]; first compound 0.1265 µM) was 0.388 and the relative viability ([15]; first compound 0.4 µM) was 0.382. The relative viability ([15]; first compound 4 µM) was 0.362, the relative viability ([16]; first compound 0.04 µM) was 0.437 and the relative viability ([16]; first compound 0.1265 µM) was 0.39. The relative viability ([16]; first compound 0.4 µM) was 0.393, the relative viability ([16]; first compound 4 µM) was 0.332 and the relative viability ([17]; first compound 0.04 µM) was 0.525. It also gave a relative viability ([17]; first compound 0.1265 µM) of 0.494, a relative viability ([17]; first compound 0.4 µM) of 0.453 and a relative viability ([17]; first compound 4 µM) of 0.384. For the same compound, the relative viability ([18]; first compound 0.04 µM) was 0.356, the relative viability ([18]; first compound 0.1265 µM) was 0.406 and the relative viability ([18]; first compound 0.4 µM) was 0.287. For the same compound, the relative viability ([18]; first compound 4 µM) was 0.289, the relative viability ([19]; first compound 0.04 µM) was 0.719 and the relative viability ([19]; first compound 0.1265 µM) was 0.762. The relative viability ([19]; first compound 0.4 µM) was 0.803, the relative viability ([19]; first compound 4 µM) was 0.733 and the relative viability ([20]; first compound 0.04 µM) was 0.566. The relative viability ([20]; first compound 0.1265 µM) was 0.488, the relative viability ([20]; first compound 0.4 µM) was 0.605 and the relative viability ([20]; first compound 4 µM) was 0.392. The relative viability ([21]; first compound 0.04 µM) was 0.72, the relative viability ([21]; first compound 0.1265 µM) was 0.718 and the relative viability ([21]; first compound 0.4 µM) was 0.635. It also gave a relative viability ([21]; first compound 4 µM) of 0.608, a relative viability ([22]; first compound 0.04 µM) of 0.626 and a relative viability ([22]; first compound 0.1265 µM) of 0.663. For the same compound, the relative viability ([22]; first compound 0.4 µM) was 0.599, the relative viability ([22]; first compound 4 µM) was 0.544 and the relative viability ([23]; first compound 0.04 µM) was 0.621. The relative viability ([23]; first compound 0.1265 µM) was 0.531, the relative viability ([23]; first compound 0.4 µM) was 0.516 and the relative viability ([23]; first compound 4 µM) was 0.373. For the same compound, the relative viability ([24]; first compound 0.04 µM) was 0.438, the relative viability ([24]; first compound 0.1265 µM) was 0.315 and the relative viability ([24]; first compound 0.4 µM) was 0.301. It also gave a relative viability ([24]; first compound 4 µM) of 0.312.
